This note sets out measurements from patent US7348427B2, “Antipathogenic benzamide compounds” (Genesoft Pharmaceuticals, Inc., priority 2001, dated 2008).

Assay [1] relates to Bacillus cereus (ATCC 11778). The assay can be described thus: MIC, NCCLS broth microdilution assay. The assay is classed as cell-based. The note with it: A = B. cereus ATCC 11778. From the text:
(§1) In vitro biological activity data were collected for a variety of microorganisms, including Bacillus cereus (ATCC 11778), Staphylococcus aureus (ATCC 27660, a methicillin resistant strain (MRSA); ATCC 13709, a methicillin sensitive strain (MSSA)); Streptococcus pneumoniae (ATCC 51422, a penicillin resistant strain (PRSP)), Enterococcus faecium (ATCC 51559, a vancomycin resistant strain (VRE)), and Staphylococcus epidermidis (ATCC 12228). Additionally, antifungal activity data were collected for Candida albicans (ATCC 38247).
(§2) Compounds according to this invention were screened for their in vitro activities against selected species of bacteria and fungi. The minimal inhibition concentration (MIC) of these compounds was determined using the National Committee for Clinical Laboratory Standards (NCCLS) broth microdilution assay in microtiter plates, as set forth in: (1) the guidelines of the National. Committee for Clinical Laboratory Standards (NCCLS) Document M7-A4 (NCCLS, 1997); (2) the guidelines of the National Committee for Clinical Laboratory Standards (NCCLS) Document M11-A4 (NCCLS, 1997); and (3) the guidelines and reference method of the National Committee for Clinical Laboratory Standards (NCCLS) Document M27-T (NCCLS, 1995). For antifungal assays, the method recommended in Murray, P R., 1995 Manual of Clinical Microbiology (ASM Press, Washington, D.C.), was employed.
(Dilution methods test growth across graded concentrations, often in twofold steps.)

Assay [2] has as its system Staphylococcus aureus (ATCC 13709, a methicillin sensitive strain (MSSA)). The assay can be described thus: MIC, NCCLS broth microdilution assay. The settings on record: E = S. aureus ATCC 13709. The assay is classed as cell-based.
From the text: as §1, §2

Assay [3] deals with Staphylococcus aureus (ATCC 27660, a methicillin resistant strain (MRSA)). The assay can be described thus: MIC, NCCLS broth microdilution assay. The class given is cell-based. The settings on record: F = S. aureus ATCC 27660.
From the text: as §1, §2

Assay [4] has as its system Candida albicans (ATCC 38247). The assay can be described thus: Antifungal MIC assay. The settings on record: B = C. albicans ATCC 38247. The assay is classed as cell-based.
From the text: as §1, §2

The test system of a further assay is E. faecalis ATCC 29212. The assay can be described thus: MIC, NCCLS broth microdilution assay. The assay is classed as cell-based, Enterococcus faecalis. The settings on record: C = E. faecalis ATCC 29212. On the procedure:
as §2

The test system of a further assay is S. pneumoniae ATCC 49619. Briefly: MIC, NCCLS broth microdilution assay. The class given is cell-based, Streptococcus pneumoniae. The note with it: H = S. pneumoniae ATCC 49619. Here is the method:
as §2

For the compound `Cn1cc(NC(=O)c2cc(NC(=O)c3cc(NC(=O)c4ccc(F)cc4F)c[nH]3)cn2C)cc1C(=O)NCCN1CCOCC1` [Compound A-1], the “Minimum Inhibitory Concentration (MIC)” value is “+++ (+++ = MIC ≦ 4)” in assay [1]; “+++ (+++ = MIC ≦ 4)” in assay [2]; “++ (++ = 4 < MIC < 12)” in assay [3]; greater than 32 µg/mL in assay [4]; “+++ (+++ = MIC ≦ 4)” with E. faecalis ATCC 29212; “+++ (+++ = MIC ≦ 4)” in the assay on S. pneumoniae ATCC 49619.

As for `C[C@@H]1CN(CCNC(=O)c2cc(NC(=O)c3cc(NC(=O)c4cc(NC(=O)c5ccc(F)cc5F)c[nH]4)cn3C)cn2C)C[C@H](C)O1` [Compound A-5], the “Minimum Inhibitory Concentration (MIC)” value in assay [1] was “+ (+ = 12 ≦ MIC ≦ 32)”; in assay [2], “+++ (+++ = MIC ≦ 4)”; in assay [3] it was “+++ (+++ = MIC ≦ 4)”; in assay [4], greater than 32 µg/mL; with E. faecalis ATCC 29212, “+++ (+++ = MIC ≦ 4)”; in the assay on S. pneumoniae ATCC 49619 it was “++ (++ = 4 < MIC < 12)”.

For `C[C@@H]1CCC[C@H](C)N1CCNC(=O)c1cc(NC(=O)c2cc(NC(=O)c3cc(NC(=O)c4ccc(F)cc4F)c[nH]3)cn2C)cn1C` [Compound A-10], the “Minimum Inhibitory Concentration (MIC)” value is reported as “+++ (+++ = MIC ≦ 4)” in assay [1]; “+++ (+++ = MIC ≦ 4)” in assay [2]; “+++ (+++ = MIC ≦ 4)” in assay [3]; “++ (++ = 4 < MIC < 12)” in assay [4]; “++ (++ = 4 < MIC < 12)” with E. faecalis ATCC 29212; “+++ (+++ = MIC ≦ 4)” in the assay on S. pneumoniae ATCC 49619.

Regarding `Cn1cc(NC(=O)c2cc(NC(=O)c3cc(NC(=O)c4ccc(F)cc4F)c[nH]3)cn2C)cc1C(=O)NCCCN1CCC(O)CC1` [Compound A-11], the “Minimum Inhibitory Concentration (MIC)” value in assay [1] is reported as “+ (+ = 12 ≦ MIC ≦ 32)”; in assay [2], “++ (++ = 4 < MIC < 12)”; in assay [3] it was “+ (+ = 12 ≦ MIC ≦ 32)”; in assay [4] it was “+ (+ = 12 ≦ MIC ≦ 32)”; with E. faecalis ATCC 29212 it was “+ (+ = 12 ≦ MIC ≦ 32)”; with S. pneumoniae ATCC 49619, “+ (+ = 12 ≦ MIC ≦ 32)”.

`CN(C)CC(C)(C)CNC(=O)c1cc(NC(=O)c2cc(NC(=O)c3cc(NC(=O)c4ccc(Cl)cc4F)c[nH]3)cn2C)cn1C` [Compound A-14]: the “Minimum Inhibitory Concentration (MIC)” value in assay [1] was “+++ (+++ = MIC ≦ 4)”; in assay [2], “+++ (+++ = MIC ≦ 4)”; in assay [3], “+++ (+++ = MIC ≦ 4)”; in assay [4] it was “+ (+ = 12 ≦ MIC ≦ 32)”; with E. faecalis ATCC 29212, “+++ (+++ = MIC ≦ 4)”; in the assay with S. pneumoniae ATCC 49619, “+++ (+++ = MIC ≦ 4)”.

For `CN(C)CCCCNC(=O)c1cc(NC(=O)c2cc(NC(=O)c3cc(NC(=O)c4ccc(Cl)cc4F)c[nH]3)cn2C)cn1C` [Compound A-15], the “Minimum Inhibitory Concentration (MIC)” value in assay [1] is listed as “+++ (+++ = MIC ≦ 4)”; in assay [2], “+++ (+++ = MIC ≦ 4)”; in assay [3], “+++ (+++ = MIC ≦ 4)”; in assay [4], “+ (+ = 12 ≦ MIC ≦ 32)”; in the assay on E. faecalis ATCC 29212, “+++ (+++ = MIC ≦ 4)”; with S. pneumoniae ATCC 49619, “+++ (+++ = MIC ≦ 4)”.

For the compound `Cn1cc(NC(=O)c2cc(NC(=O)c3cc(NC(=O)c4ccc(Cl)cc4)c[nH]3)cn2C)cc1C(=O)NCCN1CCOCC1` [Compound A-34], the “Minimum Inhibitory Concentration (MIC)” value is recorded as “+++ (+++ = MIC ≦ 4)” in assay [1], “+ (+ = 12 ≦ MIC ≦ 32)” in assay [4], “++ (++ = 4 < MIC < 12)” with E. faecalis ATCC 29212 and “+ (+ = 12 ≦ MIC ≦ 32)” in the assay with S. pneumoniae ATCC 49619.

On to `Cn1cc(NC(=O)c2cc(NC(=O)c3ccc(F)cc3F)cn2C)cc1C(=O)NCCN1CCOCC1` [Compound B-2], for which the “Minimum Inhibitory Concentration (MIC)” value in assay [1] was “++ (++ = 4 < MIC < 12)”; in assay [4], greater than 32 µg/mL; in the assay with E. faecalis ATCC 29212, “+++ (+++ = MIC ≦ 4)”; with S. pneumoniae ATCC 49619, “+++ (+++ = MIC ≦ 4)”.

Take `Cn1cc(NC(=O)c2cc(NC(=O)c3cc(NC(=O)c4ccc(F)c(F)c4)cn3C)cn2C)cc1C(=O)NCCN1CCOCC1` [Compound B-31]: the “Minimum Inhibitory Concentration (MIC)” value is “++ (++ = 4 < MIC < 12)” in assay [1], greater than 32 µg/mL in assay [4], “+++ (+++ = MIC ≦ 4)” in the assay on E. faecalis ATCC 29212 and “+++ (+++ = MIC ≦ 4)” in the assay on S. pneumoniae ATCC 49619.

With `Cn1cc(NC(=O)c2cc(NC(=O)c3cc(NC(=O)c4cccc(F)c4)cn3C)cn2C)cc1C(=O)NCCN1CCOCC1` [Compound B-38], the “Minimum Inhibitory Concentration (MIC)” value is “+ (+ = 12 ≦ MIC ≦ 32)” in assay [1], greater than 32 µg/mL in assay [4], “+ (+ = 12 ≦ MIC ≦ 32)” with E. faecalis ATCC 29212 and “+ (+ = 12 ≦ MIC ≦ 32)” in the assay on S. pneumoniae ATCC 49619.

As for `Cn1cc(NC(=O)c2cc(NC(=O)c3cc(NC(=O)c4ccc(F)cc4Cl)cn3C)cn2C)cc1C(=O)NCCN1CCOCC1` [Compound B-45], the “Minimum Inhibitory Concentration (MIC)” value in assay [1] was “++ (++ = 4 < MIC < 12)”; in assay [4] it was greater than 32 µg/mL; in the assay with E. faecalis ATCC 29212, “++ (++ = 4 < MIC < 12)”; with S. pneumoniae ATCC 49619, “+++ (+++ = MIC ≦ 4)”.

Take `Cn1cc(NC(=O)c2cc(NC(=O)c3cc(NC(=O)c4ccc(F)c(Cl)c4)cn3C)cn2C)cc1C(=O)NCCN1CCOCC1` [Compound B-46]: the “Minimum Inhibitory Concentration (MIC)” value in assay [1] was “+++ (+++ = MIC ≦ 4)”; in assay [4] it was greater than 32 µg/mL; in the assay on E. faecalis ATCC 29212, “+++ (+++ = MIC ≦ 4)”; with S. pneumoniae ATCC 49619, “+++ (+++ = MIC ≦ 4)”.

As to `Cn1cc(NC(=O)c2cc(NC(=O)c3cc(NC(=O)c4c(Cl)cccc4Cl)cn3C)cn2C)cc1C(=O)NCCN1CCOCC1` [Compound B-52], the “Minimum Inhibitory Concentration (MIC)” value (in assay [1]; in assay [4]; in the assay on E. faecalis ATCC 29212; with S. pneumoniae ATCC 49619) was greater than 32 µg/mL in each case.

As to `Cn1cc(NC(=O)c2cc(NC(=O)c3cc(NC(=O)c4ccc(Cl)cc4Cl)cn3C)cn2C)cc1C(=O)NCCN1CCOCC1` [Compound B-55], the “Minimum Inhibitory Concentration (MIC)” value in assay [1] is “+++ (+++ = MIC ≦ 4)”; in assay [4], greater than 32 µg/mL; in the assay with E. faecalis ATCC 29212, “+++ (+++ = MIC ≦ 4)”; with S. pneumoniae ATCC 49619, “+++ (+++ = MIC ≦ 4)”.

As for `Cn1cc(NC(=O)c2cc(NC(=O)c3ccc(Cl)cc3)cn2C)cc1C(=O)NCCN1CCOCC1` [Compound B-57], the “Minimum Inhibitory Concentration (MIC)” value is “+ (+ = 12 ≦ MIC ≦ 32)” in assay [1], greater than 32 µg/mL in assay [4], “+++ (+++ = MIC ≦ 4)” in the assay on E. faecalis ATCC 29212 and “+++ (+++ = MIC ≦ 4)” with S. pneumoniae ATCC 49619.

On to `Cn1cc(NC(=O)c2cc(NC(=O)c3cc(NC(=O)c4cccc(Cl)c4)cn3C)cn2C)cc1C(=O)NCCN1CCOCC1` [Compound B-59], for which the “Minimum Inhibitory Concentration (MIC)” value was “+ (+ = 12 ≦ MIC ≦ 32)” in assay [1], greater than 32 µg/mL in assay [4], “++ (++ = 4 < MIC < 12)” in the assay with E. faecalis ATCC 29212 and “++ (++ = 4 < MIC < 12)” in the assay with S. pneumoniae ATCC 49619.

Turning to `Cn1cc(NC(=O)c2cc(NC(=O)c3cc(NC(=O)c4ccccc4Cl)cn3C)cn2C)cc1C(=O)NCCN1CCOCC1` [Compound B-60], the “Minimum Inhibitory Concentration (MIC)” value is “+ (+ = 12 ≦ MIC ≦ 32)” in assay [1], greater than 32 µg/mL in assay [4], “+ (+ = 12 ≦ MIC ≦ 32)” in the assay on E. faecalis ATCC 29212 and “+ (+ = 12 ≦ MIC ≦ 32)” with S. pneumoniae ATCC 49619.

For the compound `Cn1cc(NC(=O)c2cc(NC(=O)c3cc(NC(=O)c4cccc(C(F)(F)F)c4)cn3C)cn2C)cc1C(=O)NCCN1CCOCC1` [Compound B-70], the “Minimum Inhibitory Concentration (MIC)” value in assay [1] was “+ (+ = 12 ≦ MIC ≦ 32)”; in assay [4] it was greater than 32 µg/mL; in the assay with E. faecalis ATCC 29212, “++ (++ = 4 < MIC < 12)”; with S. pneumoniae ATCC 49619, “+ (+ = 12 ≦ MIC ≦ 32)”.

Regarding `Cn1cc(NC(=O)c2cc(NC(=O)c3cc(NC(=O)c4ccc(C(F)(F)F)cc4)cn3C)cn2C)cc1C(=O)NCCN1CCOCC1` [Compound B-71], the “Minimum Inhibitory Concentration (MIC)” value in assay [1] is “+ (+ = 12 ≦ MIC ≦ 32)”; in assay [4], greater than 32 µg/mL; with E. faecalis ATCC 29212 it was “++ (++ = 4 < MIC < 12)”; in the assay on S. pneumoniae ATCC 49619, “+++ (+++ = MIC ≦ 4)”.
